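Compound exposure: 48 hours, 5 concentrations, 96-well plates. GI50 is the concentration that inhibits growth by half. Definition used: TGI = concentration required for complete inhibition of growth.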
Assays:
Experiment in all cases: NCI tumour cell line growth inhibition, 48 h
HCC-2998 colon = system: HCC-2998 colon
MCF7 breast = system: MCF7 breast
NCI/ADR-RES ovarian = system: NCI/ADR-RES ovarian
DMS 273 small cell lung = system: DMS 273 small cell lung
DMS 114 small cell lung = system: DMS 114 small cell lung
DLD-1 colon = system: DLD-1 colon
KM20L2 colon = system: KM20L2 colon
SNB-78 CNS = system: SNB-78 CNS
XF 498 CNS = system: XF 498 CNS
SN12K1 renal = system: SN12K1 renal
NCI-H226 lung = system: NCI-H226 lung
M19-MEL melanoma = system: M19-MEL melanoma
P388 leukemia = system: P388 leukemia
PC-3 prostate = system: PC-3 prostate
HOP-18 NSCLC = system: HOP-18 NSCLC
LXFL 529 NSCLC = system: LXFL 529 NSCLC
DU-145 prostate = system: DU-145 prostate
T-47D breast = system: T-47D breast

NCCCCCC(CCN)SCC1OC(n2cnc3c(N)ncnc32)C(O)C1O (configuration not stated)
TGI (HCC-2998 colon): > 1500 µM
TGI (MCF7 breast): > 1500 µM
TGI (NCI/ADR-RES ovarian): > 1500 µM
TGI (DMS 273 small cell lung): > 1090 µM
TGI (DMS 114 small cell lung): > 1500 µM
TGI (DLD-1 colon): > 1500 µM
TGI (KM20L2 colon): > 1500 µM
TGI (SNB-78 CNS): > 1500 µM
TGI (XF 498 CNS): > 15 µM
TGI (SN12K1 renal): > 1500 µM
TGI (NCI-H226 lung): > 1500 µM
TGI (M19-MEL melanoma): > 1500 µM
TGI (P388 leukemia): > 1500 µM

COC(=O)/C=C1\SC2(OC1=Nc1ccccc1)C1CC3CC(C1)CC2C3 (configuration not stated)
TGI (MCF7 breast): > 100 µM
TGI (NCI/ADR-RES ovarian): > 100 µM
TGI (PC-3 prostate): > 100 µM
TGI (NCI-H226 lung): > 100 µM

Nc1ccccc1N
TGI (HCC-2998 colon): > 100 µM
TGI (DMS 273 small cell lung): > 100 µM
TGI (DLD-1 colon): > 100 µM
TGI (M19-MEL melanoma): > 100 µM
TGI (HOP-18 NSCLC): > 100 µM
TGI (LXFL 529 NSCLC): > 100 µM

CCOC(=O)CC1=N/C(=N/C(=N)N[N+](=O)[O-])SC1
TGI (HCC-2998 colon): > 100 µM
TGI (DMS 273 small cell lung): > 100 µM
TGI (DLD-1 colon): > 100 µM
TGI (KM20L2 colon): > 100 µM
TGI (SNB-78 CNS): > 100 µM
TGI (NCI-H226 lung): > 100 µM
TGI (M19-MEL melanoma): > 100 µM
TGI (HOP-18 NSCLC): > 100 µM
TGI (LXFL 529 NSCLC): > 100 µM

O=C(O)c1ccccc1CN1CCCC(C(=O)O)C1 (configuration not stated)
TGI (MCF7 breast): > 100 µM
TGI (NCI/ADR-RES ovarian): > 100 µM
TGI (PC-3 prostate): > 100 µM
TGI (NCI-H226 lung): > 100 µM
TGI (DU-145 prostate): > 100 µM
TGI (T-47D breast): > 100 µM

CCOc1ccc(/C=C2\N=C(c3ccccc3)OC2=O)cc1
TGI (HCC-2998 colon): > 100 µM
TGI (MCF7 breast): > 100 µM
TGI (NCI/ADR-RES ovarian): > 100 µM
TGI (PC-3 prostate): > 100 µM
TGI (NCI-H226 lung): > 100 µM

N=c1sc2ccccc2n1CCS (tested in a mixture with another compound)
TGI (HCC-2998 colon): 30.8 µM
TGI (MCF7 breast): 25.6 µM
TGI (NCI/ADR-RES ovarian): 45.3 µM
TGI (PC-3 prostate): > 100 µM
TGI (NCI-H226 lung): 35.3 µM
TGI (DU-145 prostate): 46 µM
TGI (T-47D breast): > 100 µM

COc1cccc2c1C(=O)c1c(O)c3c(c(O)c1C2=O)C[C@@](O)(C(=O)CO)CC3OC1CC(N(C)CCOCC(OC(C)=O)OC(C)=O)C(O)C(C)O1 (some centres not stated)
TGI (HCC-2998 colon): > 0.01 µM
TGI (DMS 114 small cell lung): > 0.01 µM
TGI (DLD-1 colon): > 0.01 µM
TGI (KM20L2 colon): > 0.01 µM
TGI (XF 498 CNS): > 0.01 µM
TGI (NCI-H226 lung): > 0.01 µM
TGI (M19-MEL melanoma): > 0.01 µM
TGI (HOP-18 NSCLC): > 0.01 µM
TGI (LXFL 529 NSCLC): > 0.01 µM

NC(Cc1ccc(CP(=O)(O)O)cc1)C(=O)O (configuration not stated)
TGI (HCC-2998 colon): > 100 µM
TGI (MCF7 breast): > 100 µM
TGI (NCI/ADR-RES ovarian): > 100 µM
TGI (PC-3 prostate): > 100 µM
TGI (DU-145 prostate): > 100 µM
TGI (T-47D breast): > 100 µM

Cc1cccc2cc(/C=C/C(=O)/C=C/c3ccc(Cl)cc3)c(=O)[nH]c12
GI50 (NCI/ADR-RES ovarian): > 100 µM
TGI (NCI/ADR-RES ovarian): > 100 µM

CN1C2CCC1/C(=C/c1cccc3c1OCO3)C(=O)/C2=C\c1cccc2c1OCO2
TGI (HCC-2998 colon): > 100 µM
TGI (DMS 273 small cell lung): > 100 µM
TGI (DMS 114 small cell lung): > 100 µM
TGI (DLD-1 colon): > 100 µM
TGI (KM20L2 colon): > 100 µM
TGI (XF 498 CNS): > 100 µM
TGI (NCI-H226 lung): > 100 µM
TGI (M19-MEL melanoma): > 100 µM
TGI (LXFL 529 NSCLC): > 100 µM

CC(=O)CCC#Cc1ccccc1C(=O)C(C)=[N+]=[N-]
TGI (HCC-2998 colon): > 100 µM
TGI (DMS 273 small cell lung): 90.1 µM
TGI (DMS 114 small cell lung): 42 µM
TGI (DLD-1 colon): > 100 µM
TGI (KM20L2 colon): > 100 µM
TGI (XF 498 CNS): 89.3 µM
TGI (NCI-H226 lung): > 100 µM
TGI (HOP-18 NSCLC): > 100 µM

O=C(O)C(Cc1cc(I)c(O)c(I)c1)C1CCCCC1 (configuration not stated)
TGI (HCC-2998 colon): 76.9 µM
TGI (NCI/ADR-RES ovarian): > 100 µM
TGI (PC-3 prostate): 41.5 µM
TGI (NCI-H226 lung): > 100 µM
TGI (DU-145 prostate): > 100 µM
TGI (T-47D breast): > 100 µM

Fc1ccc(Nc2nc(Cl)c3[nH]cnc3n2)cc1Cl
TGI (HCC-2998 colon): > 100 µM
TGI (MCF7 breast): > 100 µM
TGI (NCI/ADR-RES ovarian): > 100 µM
TGI (PC-3 prostate): > 100 µM
TGI (NCI-H226 lung): > 100 µM
TGI (DU-145 prostate): > 100 µM
TGI (T-47D breast): > 100 µM

Reference: PubChem BioAssay (NCI)
